Where “and” joins values, the source holds several entries; their conditions need not be identical. Equal values may be shown once.

Test [1] concerns the target Carbonic anhydrase 9 (Homo sapiens, UniProt Q16790).
Description: Inhibition constant of anion against human carbonic anhydrase isozyme hCA IX
Test [2] concerns the target T1, Carbonic anhydrase 4 (Homo sapiens, UniProt P22748).
Description: Inhibition constant of anion against human carbonic anhydrase isozyme hCA IV
The target in test [3] is T2, Carbonic anhydrase V (Homo sapiens, UniProt Q9Y2D0+P35218). It is filed as protein assay.
Description: Inhibition constant of anion against human carbonic anhydrase isozyme hCA V
Test [4] concerns the target T2, Carbonic anhydrase V. As to the kind of experiment: Inhibition constant against human carbonic anhydrase isozyme hCA V. It is filed as protein assay.
Test [5] concerns the target T1, Carbonic anhydrase 4. As to the kind of experiment: Inhibition constant against human carbonic anhydrase isozyme hCA IV.

T1 sequence (P22748 whole entry): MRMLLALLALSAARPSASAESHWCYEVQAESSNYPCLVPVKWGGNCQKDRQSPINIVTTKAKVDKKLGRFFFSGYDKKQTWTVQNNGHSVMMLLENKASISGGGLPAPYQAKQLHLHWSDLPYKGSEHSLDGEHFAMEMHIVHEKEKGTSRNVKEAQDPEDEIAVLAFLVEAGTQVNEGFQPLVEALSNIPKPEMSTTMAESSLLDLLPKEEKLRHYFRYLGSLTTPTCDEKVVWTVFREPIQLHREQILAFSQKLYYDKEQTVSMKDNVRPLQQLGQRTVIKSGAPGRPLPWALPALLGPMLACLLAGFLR

Broadly, the Ki is a dissociation constant, usually derived from enzyme kinetics or from competition with a known ligand. For `O=C(O)O` [BICARBONATE], the Ki is 13 mM in test [1]; 6.6 mM and 5.7 mM in test [2]; 82 mM and 95 mM in test [3] (read-out: Ki).
On to `Br` [BROMIDE], for which the Ki in test [1] is 16 mM; in test [2], 0.09 mM; in test [3] (read-out: Ki), 50 mM.
In the same order, the values of `N#CO` [CYANATE] are 0.04 mM, 0.61 mM and 0.02 mM.
As for `F` [FLUORIDE ION], the Ki was determined as 48 mM in test [1], 0.07 mM in test [2] and 241 mM in test [3] (read-out: Ki).
Take `Cl` [HYDROCHLORIC ACID]: the values for the Ki in test [1], in test [2] and in test [3] were 33 mM, 0.09 mM and 156 mM, respectively.
In the same order, the values of `S` [HYDROGEN SULFIDE] are 0.007 mM, 3.9 mM and 0.02 mM.
`I` [IODIDE]: the Ki in test [1] was determined as 7 mM; in test [2], 0.08 mM; in test [3], 25 mM.
Regarding `O=[N+]([O-])O` [NITRIC ACID], the Ki in test [1] was found to be 46 mM; in test [2], 58.7 mM; in test [3], 16 mM.
With `O=NO` [NITROUS ACID], the Ki was determined as 30.8 mM in test [2] and 16 mM in test [3] (read-out: Ki).
In the case of `OB(O)c1ccccc1` [PHENYLBORONIC ACID], the Ki amounted to 4.5 mM in test [4] and 0.00088 mM in test [5].
As for `NS(=O)(=O)O` [SULFAMATE], the Ki amounted to 0.12 mM in test [4] and 0.00093 mM in test [5].
Turning to `O=S(=O)(O)O` [SULFURIC ACID], the figures for the Ki in test [2] and in test [3] were 9 mM and 680 mM, respectively.
As for `O=S(O)O` [SULFUROUS ACID], the Ki in test [2] amounted to 13.2 mM; in test [3] (read-out: Ki), 65 mM.
On to `N#CS` [THIOCYANIC ACID], for which the figures for the Ki in test [1], in test [2] and in test [3] (read-out: Ki) were 0.13 mM, 39 mM and 0.74 mM, respectively.

For the origin of these results see ChEMBL document CHEMBL1138646, “Carbonic anhydrase inhibitors: inhibition of the membrane-bound human isozyme IV with anions” (Bioorg Med Chem Lett, 2004).
